Legend:
GHSR1a [1] = molecular target: T1, GHSR1a (Homo sapiens, UniProt Q92847); assay: Calcium FLIPR assay, GHSR-1a agonism; format: cell-based; parameters: Emax: unit not given here; details: HEK293/GHSR1a cells
T1 construct: expressed in transfected cells; host or cells: HEK293
In short: (§1)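 Antagonist potency reflects lowering of the 10 nM ghrelin calcium signal in HEK293/GHSR1a cells, with compound and ghrelin given at t=20 sec. Agonism was scored from the 2-minute fluorescence response to compound alone.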

GHSR1a [2] = molecular target: T1, GHSR1a; assay: Calcium FLIPR assay, GHSR-1a antagonism (reduction of ghrelin response); format: cell-based; details: HEK293/GHSR1a cells, ghrelin 10 nM
In short: as §1

T1 sequence (Q92847 whole entry): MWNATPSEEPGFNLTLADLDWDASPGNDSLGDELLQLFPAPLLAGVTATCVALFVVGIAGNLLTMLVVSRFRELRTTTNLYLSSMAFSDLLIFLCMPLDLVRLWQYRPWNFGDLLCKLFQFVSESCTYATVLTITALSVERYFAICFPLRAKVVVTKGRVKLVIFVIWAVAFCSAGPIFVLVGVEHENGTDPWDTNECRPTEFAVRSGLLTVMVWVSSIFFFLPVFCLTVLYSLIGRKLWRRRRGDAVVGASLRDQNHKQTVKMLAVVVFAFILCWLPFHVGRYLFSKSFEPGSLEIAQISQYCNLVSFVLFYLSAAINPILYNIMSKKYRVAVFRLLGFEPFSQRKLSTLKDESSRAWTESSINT

Row | SMILES | EC50 (GHSR1a [1]) [nM] | IC50 (GHSR1a [2]) [nM] | Emax (GHSR1a [1])
1 | CC(NC(=O)N(C)C1CCN(C)CC1)c1ccc(-c2cncc(-c3cccs3)c2)c(Cl)c1Cl (centres unmarked) [Compound H0717, 3-(1-(2,3-dichloro-4-(5-(thiophen-2-yl)pyridin-3-yl)phenyl)ethyl)-1-methyl-1-(1-methylpiperidin-4-yl)urea] | > 30000 | 396 | 
2 | CC(NC(=O)N(C)C1CCN(C)CC1)c1ccc(-c2cncc(C3CCCC3)c2)c(Cl)c1Cl (centres unmarked) [Compound H0718, 3-(1-(2,3-dichloro-4-(5-cyclopentylpyridin-3-yl)phenyl)ethyl)-1-methyl-1-(1-methylpiperidin-4-yl)urea] | > 30000 | 499 | 
3 | CC(NC(=O)N(C)C1CCN(C)CC1)c1ccc(-c2cncc(N3CCCC3)c2)c(Cl)c1Cl (centres unmarked) [Compound H0719, 3-(1-(2,3-dichloro-4-(5-(pyrrolidin-1-yl)pyridin-3-yl)phenyl)ethyl)-1-methyl-1-(1-methylpiperidin-4-yl)urea] | > 30000 | 780 | 
4 | CC(NC(=O)N(C)C1CCN(C)CC1)c1ccc(-c2ccc(C(=O)N(C)C)s2)c(Cl)c1Cl (centres unmarked) [Compound H0726, 5-(2,3-dichloro-4-(1-(3-methyl-3-(1-methylpiperidin-4-yl)ureido)ethyl)phenyl)-N,N-dimethylthiophene-2-carboxamide] | > 30000 | 456 | 
5 | CN1CCC(N(C)C(=O)NC2(c3ccc(-c4cncnc4)c(Cl)c3Cl)CCOCC2)CC1 [Compound H0727, 3-(4-(2,3-dichloro-4-(pyrimidin-5-yl)phenyl)tetrahydro-2H-pyran-4-yl)-1-methyl-1-(1-methylpiperidin-4-yl)urea] | > 30000 | 3600 | 
6 | CC(NC(=O)N(C)C1CCN(C)CC1)c1ccc(-c2cccnn2)c(Cl)c1Cl (centres unmarked) [Compound H0729, 3-(1-(2,3-dichloro-4-(pyridazin-3-yl)phenyl)ethyl)-1-methyl-1-(1-methylpiperidin-4-yl)urea] | 95 | 100 | 2818
7 | CC(O)C#Cc1ccc(C(C)NC(=O)N(C)C2CCN(C)CC2)c(Cl)c1Cl (centres unmarked) [Compound H0733, 3-(1-(2,3-dichloro-4-(3-hydroxybut-1-yn-1-yl)phenyl)ethyl)-1-methyl-1-(1-methylpiperidin-4-yl)urea] | > 30000 | 95 | 
8 | CC(NC(=O)N(C)C1CCN(C)CC1)c1ccc(C#Cc2ccccn2)c(Cl)c1Cl (centres unmarked) [Compound H0734, 3-(1-(2,3-dichloro-4-(pyridin-2-ylethynyl)phenyl)ethyl)-1-methyl-1-(1-methylpiperidin-4-yl)urea] | > 30000 | 202 | 
9 | CC(NC(=O)N(C)C1CCN(C)CC1)c1ccc(-c2cncc(-c3ncccn3)c2)c(Cl)c1Cl (centres unmarked) [Compound H0735, 3-(1-(2,3-dichloro-4-(5-(pyrimidin-2-yl)pyridin-3-yl)phenyl)ethyl)-1-methyl-1-(1-methylpiperidin-4-yl)urea] | > 30000 | 209 | 
10 | COc1cncc(-c2ccc(C(C)NC(=O)N(C)C3CCN(C)CC3)c(Cl)c2Cl)n1 (centres unmarked) [Compound H0738, 3-(1-(2,3-dichloro-4-(6-methoxypyrazin-2-yl)phenyl)ethyl)-1-methyl-1-(1-methylpiperidin-4-yl)urea] | > 30000 | 696 | 
11 | C#Cc1ccc(C(CC2CC2)NC(=O)N(OC)C2CCN(C)CC2)c(Cl)c1Cl (centres unmarked) [Compound H0740, 3-(2-cyclopropyl-1-(2,3-dichloro-4-ethynylphenyl)ethyl)-1-methoxy-1-(1-methylpiperidin-4-yl)urea] | 1.5 | 7 | 3620
12 | CON(C(=O)NC(CC1CC1)c1ccc(-c2cnccn2)c(Cl)c1Cl)C1CCN(C)CC1 (centres unmarked) [Compound H0741, 3-(2-cyclopropyl-1-(2,3-dichloro-4-(pyrazin-2-yl)phenyl)ethyl)-1-methoxy-1-(1-methylpiperidin-4-yl)urea] | > 30000 | 15 | 
13 | C#Cc1ccc(C(C)NC(=O)N(OC)C2CCN(C)CC2)c(Cl)c1Cl (centres unmarked) [Compound H0742, 3-(1-(2,3-dichloro-4-ethynylphenyl)ethyl)-1-methoxy-1-(1-methylpiperidin-4-yl)urea] | > 30000 | 54 | 
14 | CON(C(=O)NC(C)c1ccc(-c2cnccn2)c(Cl)c1Cl)C1CCN(C)CC1 (centres unmarked) [Compound H0743, 3-(1-(2,3-dichloro-4-(pyrazin-2-yl)phenyl)ethyl)-1-methoxy-1-(1-methylpiperidin-4-yl)urea] | > 30000 | 94 | 
15 | C#Cc1ccc(C(CC2CC2)NC(=O)N(OCC)C2CCN(C)CC2)c(Cl)c1Cl (centres unmarked) [Compound H0744, 3-(2-cyclopropyl-1-(2,3-dichloro-4-ethynylphenyl)ethyl)-1-ethoxy-1-(1-methylpiperidin-4-yl)urea] | 45 | 33 | 3536
16 | C#Cc1ccc(C(C)NC(=O)N(O)C2CCN(C)CC2)c(Cl)c1Cl (centres unmarked) [Compound H0745, 3-(1-(2,3-dichloro-4-ethynylphenyl)ethyl)-1-hydroxy-1-(1-methylpiperidin-4-yl)urea] | 97 | 57 | 2391

Row | SMILES | EC50 (GHSR1a [1]) [nM] | IC50 (GHSR1a [2]) [nM] | Emax (GHSR1a [1])
17 | CC(NC(=O)N(C)C1CCN(C)CC1)c1ccc(-c2cncc(-c3ccoc3)c2)c(Cl)c1Cl (centres unmarked) [Compound H0746, 3-(1-(2,3-dichloro-4-(5-(furan-3-yl)pyridin-3-yl)phenyl)ethyl)-1-methyl-1-(1-methylpiperidin-4-yl)urea] | > 30000 | 216 | 
18 | CC(NC(=O)N(C)C1CCN(C)CC1)c1ccc(-c2cncc(-c3ccsc3)c2)c(Cl)c1Cl (centres unmarked) [Compound H0747, 3-(1-(2,3-dichloro-4-(5-(thiophen-3-yl)pyridin-3-yl)phenyl)ethyl)-1-methyl-1-(1-methylpiperidin-4-yl)urea] | > 30000 | 84 | 
19 | CC(NC(=O)N(C)C1CCN(C)CC1)c1ccc(-c2cncc(-c3cnn(C)c3)c2)c(Cl)c1Cl (centres unmarked) [Compound H0748, 3-(1-(2,3-dichloro-4-(5-(1-methyl-1H-pyrazol-4-yl)pyridin-3-yl)phenyl)ethyl)-1-methyl-1-(1-methylpiperidin-4-yl)urea] | > 30000 | 554 | 
20 | C#Cc1ccc(C(C)NC(=O)N(OCC)C2CCN(C)CC2)c(Cl)c1Cl (centres unmarked) [Compound H0749, 3-(1-(2,3-dichloro-4-ethynylphenyl)ethyl)-1-ethoxy-1-(1-methylpiperidin-4-yl)urea] | 397 | 111 | 1554
21 | CCON(C(=O)NC(C)c1ccc(-c2cnccn2)c(Cl)c1Cl)C1CCN(C)CC1 (centres unmarked) [Compound H0750, 3-(1-(2,3-dichloro-4-(pyrazin-2-yl)phenyl)ethyl)-1-ethoxy-1-(1-methylpiperidin-4-yl)urea] | > 30000 | 177 | 
22 | CCON(C(=O)NC(CC1CC1)c1ccc(-c2cnccn2)c(Cl)c1Cl)C1CCN(C)CC1 (centres unmarked) [Compound H0752, 3-(2-cyclopropyl-1-(2,3-dichloro-4-(pyrazin-2-yl)phenyl)ethyl)-1-ethoxy-1-(1-methylpiperidin-4-yl)urea] | > 30000 | 100 | 
23 | CC(NC(=O)N(C)C1CCN(C)CC1)c1ccc(C#Cc2cncnc2)c(Cl)c1Cl (centres unmarked) [Compound H0753, 3-(1-(2,3-dichloro-4-(pyrimidin-5-ylethynyl)phenyl)ethyl)-1-methyl-1-(1-methylpiperidin-4-yl)urea] | > 30000 | 60 | 
24 | CC(NC(=O)N(C)C1CCN(C)CC1)c1ccc(C#CCO)c(Cl)c1Cl (centres unmarked) [Compound H0755, 3-(1-(2,3-dichloro-4-(3-hydroxyprop-1-yn-1-yl)phenyl)ethyl)-1-methyl-1-(1-methylpiperidin-4-yl)urea] | 10 | 12 | 2196
25 | CC(NC(=O)N(O)C1CCN(C)CC1)c1ccc(-c2cnccn2)c(Cl)c1Cl (centres unmarked) [Compound H0756, 3-(1-(2,3-dichloro-4-(pyrazin-2-yl)phenyl)ethyl)-1-hydroxy-1-(1-methylpiperidin-4-yl)urea] | 13 | 13 | 1729
26 | CCOC(C#Cc1ccc(C(C)NC(=O)N(C)C2CCN(C)CC2)c(Cl)c1Cl)OCC (centres unmarked) [Compound H0757, 3-(1-(2,3-dichloro-4-(3,3-diethoxyprop-1-yn-1-yl)phenyl)ethyl)-1-methyl-1-(1-methylpiperidin-4-yl)urea] | 654 | 159 | 2704
27 | CC(NC(=O)N(C)C1CCN(C)CC1)c1ccc(-c2cnc(C(N)=O)cn2)c(Cl)c1Cl (centres unmarked) [Compound H0760] | > 30000 | 6200 | 
28 | CC(NC(=O)N(C)C1CCN(C)CC1)c1ccc(C#Cc2c[nH]cn2)c(Cl)c1Cl (centres unmarked) [Compound H0763, 3-(1-(4-((1H-imidazol-4-yl)ethynyl)-2,3-dichlorophenyl)ethyl)-1-methyl-1-(1-methylpiperidin-4-yl)urea] | > 30000 | 835 | 
29 | CC(NC(=O)N(C)C1CCN(C)CC1)c1ccc(-c2cncc(C3CC3)c2)c(Cl)c1Cl (centres unmarked) [Compound H0765, 3-(1-(2,3-dichloro-4-(5-cyclopropylpyridin-3-yl)phenyl)ethyl)-1-methyl-1-(1-methylpiperidin-4-yl)urea] | 137 | 61 | 2810
30 | CC(NC(=O)N(C)C1CCN(C)CC1)c1ccc(-c2cncc([N+](=O)[O-])c2)c(Cl)c1Cl (centres unmarked) [Compound H0766, 3-(1-(2,3-dichloro-4-(5-nitropyridin-3-yl)phenyl)ethyl)-1-methyl-1-(1-methylpiperidin-4-yl)urea] | > 30000 | 171 | 
31 | CC(NC(=O)N(C)C1CCN(C)CC1)c1ccc(-c2ccncn2)c(Cl)c1Cl (centres unmarked) [Compound H0768, 3-(1-(2,3-dichloro-4-(pyrimidin-4-yl)phenyl)ethyl)-1-methyl-1-(1-methylpiperidin-4-yl)urea] | > 30000 | 279 | 
